Format in all cases: cell-based
For assay [1], the system named is cervical cancer cell line Hela. The assay can be described thus: Minimal effective concentration that elicits polyploidy, Hela. The settings on record: Homo sapiens, read-out: MECP: Minimal effective concentration that elicits polyploidy.
Assay [2] deals with lung cancer cell line A549. The assay is described as follows: MTT assay of cellular proliferation, A549. The settings on record: Homo sapiens, read-out: EC50: Concentration that inhibits 50% of proliferation. A digest of the protocol: (§1)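 First, mid-log cells are seeded in DMEM containing 5% FBS and grown 15˜24 h to 20˜30% confluence. Next, compounds are added across 1 nM to 10 μM. Finally, MTT is given for 3˜4 h, formazan is dissolved and read at A570 to derive EC50.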
(Tetrazolium assays rely on reduction of a dye to a coloured formazan, in cell work by metabolically active cells.)

Assay [3] relates to liver cancer cell line T2 HCC. The assay can be described thus: Minimal effective concentration that elicits polyploidy, T2 HCC. The settings on record: Mus musculus, read-out: MECP: Minimal effective concentration that elicits polyploidy.
The test system of assay [4] is liver cancer cell line T2 HCC. The assay is described as follows: MTT assay of cellular proliferation, T2 HCC. The note with it: Mus musculus, read-out: EC50: Concentration that inhibits 50% of proliferation. In a few lines:
as §1

Assay [5] has as its system gastric cancer cell line NCI-N87. The assay can be described thus: Minimal effective concentration that elicits polyploidy, NCI-N87. The note with it: Homo sapiens, read-out: MECP: Minimal effective concentration that elicits polyploidy.
Assay [6] deals with cervical cancer cell line Hela. The assay can be described thus: MTT assay of cellular proliferation, Hela. The note with it: Homo sapiens, read-out: EC50: Concentration that inhibits 50% of proliferation. A digest of the protocol: as §1
In assay [7] the test system is colon cancer cell line SW460. The assay is described as follows: MTT assay of cellular proliferation, SW460. The settings on record: Homo sapiens, SW480; read-out: EC50: Concentration that inhibits 50% of proliferation. In a few lines:
as §1

In assay [8] the test system is lung cancer cell line A549. The assay is described as follows: Minimal effective concentration that elicits polyploidy, A549. The note with it: Homo sapiens, read-out: MECP: Minimal effective concentration that elicits polyploidy.
Another assay deals with SW480. The assay is described as follows: Minimal effective concentration that elicits polyploidy, SW480. The note with it: Homo sapiens, read-out: MECP: Minimal effective concentration that elicits polyploidy.
Assay [9] has as its system lung cancer cell line NCI-H23. The assay is described as follows: MTT assay of cellular proliferation, NCI-H23. The settings on record: Homo sapiens, read-out: EC50: Concentration that inhibits 50% of proliferation. A digest of the protocol: as §1
Assay [10] relates to colon cancer cell line HCT116. The assay is described as follows: MTT assay of cellular proliferation, HCT116. The settings on record: Homo sapiens, HCT-116, read-out: EC50: Concentration that inhibits 50% of proliferation. In a few lines: as §1
For assay [11], the system named is lung cancer cell line NCI-H23. The assay can be described thus: Minimal effective concentration that elicits polyploidy, NCI-H23. The note with it: Homo sapiens, read-out: MECP: Minimal effective concentration that elicits polyploidy.
Assay [12] concerns gastric cancer cell line NCI-N87. The assay can be described thus: MTT assay of cellular proliferation, NCI-N87. The note with it: Homo sapiens, read-out: EC50: Concentration that inhibits 50% of proliferation. In a few lines: as §1
For assay [13], the system named is RPEMYC^H2B-GFP cells. The assay is described as follows: Mechanism-informed phenotypic screening assay (mitotic arrest, polyploidy; GE IN-Cell Analyzer 2000). The settings on record: 20 nM to 20 μM, 24, 48 or 72 hours, read-out: Min. Effective conc. for polyploidy (≥5%). A digest of the protocol: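 Cells expressing Histone 2B-EGFP (RPEMYC^H2B-GFP) were plated 18-24 h before exposure to compounds at 20 nM to 20 μM. At 24, 48 or 72 h, imaging scored mitotic arrest or change in DNA content. Value is the lowest concentration giving polyploid accumulation at 48 h.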

The subject of assay [14] is colon cancer cell line HCT116. The assay is described as follows: Minimal effective concentration that elicits polyploidy, HCT116. The settings on record: Homo sapiens, HCT-116, read-out: MECP: Minimal effective concentration that elicits polyploidy.
Assay [15] deals with RPEMYC^H2B-GFP cells. The assay is described as follows: Mechanism-informed phenotypic screening assay (mitotic arrest, polyploidy; GE IN-Cell Analyzer 2000). The settings on record: 20 nM to 20 μM, 24, 48 or 72 hours, read-out: Mitotic Arrest (≥5%).
For assay [16], the system named is breast cancer cell line MDA-MB-231. The assay is described as follows: Minimal effective concentration that elicits polyploidy, MDA-MB-231. The note with it: Homo sapiens, read-out: MECP: Minimal effective concentration that elicits polyploidy.
For assay [17] the test system is unchanged. The assay can be described thus: MTT assay of cellular proliferation, MDA-MB-231. The note with it: Homo sapiens, read-out: EC50: Concentration that inhibits 50% of proliferation. In a few lines:
as §1

Among the data in US20240262803A1, “COMPOUNDS, COMPOSITIONS AND METHODS OF TREATING DISORDERS” (Chungdu Anticancer Bioscience Ltd, priority 2021, published 2024) are minimal effective concentration and EC50 values, retold here.

Read-outs that look alike come from different tables or passages of the source.

In the case of `COc1cc(Oc2ncccc2-c2ccnc(N)n2)cc(-n2cccn2)c1` [Compound 26, 4-(2-(3-methoxy-5-(1H-pyrazol-1-yl)phenoxy)pyridin-3-yl)pyrimidin-2-amine], the minimal effective concentration (in assay [1]; in assay [3]; in [5]; in assay [8]; with SW480; in assay [11]) was 0.001 to 1 µM each time. Besides, the minimal effective concentration in the assay with RPEMYC^H2B-GFP cells [13] is 1 µM; in [14] it was 0.001 to 1 µM; in the assay on RPEMYC^H2B-GFP cells [15] it was 1 µM; in assay [16] it was 0.001 to 1 µM. Also, the EC50 in [2], in [4], in assay [6], in assay [7], in [9] and in assay [10] was 1 to 1000 nM in each case. For the same molecule, the EC50 in [12] and in assay [17] was 1 to 1000 nM each time.

On to `COc1cc(Oc2ncccc2-c2ccncc2)cc(C(=O)O)c1` [Compound 3, 3-([3,4′-bipyridin]-2-yloxy)-5-methoxybenzoic acid], for which the minimal effective concentration (in assay [1]; in assay [3]; in assay [5]; in [8]; with SW480; in [11]) was 0.001 to 1 µM in each case. Further, the minimal effective concentration in the assay with RPEMYC^H2B-GFP cells [13] was greater than 30 µM; in assay [14] it was 0.001 to 1 µM; in the assay with RPEMYC^H2B-GFP cells [15], greater than 30 µM; in [16], 0.001 to 1 µM. Also, the EC50 in [2], in [4], in assay [6], in [7], in assay [9] and in assay [10] was 1 to 1000 nM in each case. Further, the EC50 in assay [12] and in assay [17] was 1 to 1000 nM each time.

Consider `COc1cc(NC(C)=O)cc(Oc2ncccc2-c2ccnc(C)c2)c1` [Compound 43, N-(3-methoxy-5-((2′-methyl-[3,4′-bipyridin]-2-yl)oxy)phenyl)acetamide], for which the minimal effective concentration (in [1]; in [3]; in [5]; in assay [8]; in the assay on SW480; in assay [11]) was 0.001 to 1 µM throughout. Further, the minimal effective concentration in the assay on RPEMYC^H2B-GFP cells [13] was 1 µM; in assay [14] it was 0.001 to 1 µM; in the assay on RPEMYC^H2B-GFP cells [15] it was 1 µM; in assay [16], 0.001 to 1 µM. For the same molecule, the EC50 in assay [2], in assay [4], in assay [6], in assay [7], in assay [9] and in [10] was 1 to 1000 nM in each case. Also, the EC50 in [12] and in assay [17] was 1 to 1000 nM throughout.

For the molecule `COc1cc(OC)cc(Oc2nccnc2-c2ccnc(OC)c2)c1` [Compound 35, 2-(3,5-dimethoxyphenoxy)-3-(2-methoxypyridin-4-yl)pyrazine], the minimal effective concentration (in assay [1]; in assay [3]; in assay [5]; in assay [8]; in the assay with SW480; in assay [11]) was 0.001 to 1 µM in each case. The minimal effective concentration in the assay on RPEMYC^H2B-GFP cells [13] is 1 µM; in [14] it was 0.001 to 1 µM; in the assay with RPEMYC^H2B-GFP cells [15], 1 µM; in assay [16], 0.001 to 1 µM. Besides, the EC50 in assay [2], in assay [4], in [6], in assay [7], in assay [9] and in [10] was 1 to 1000 nM in each case. Also, the EC50 in assay [12] and in assay [17] was 1 to 1000 nM each time.

As for `COc1cc(Oc2ncccc2-c2ccncc2)cc(-n2cncn2)c1` [Compound 12, 2-(3-methoxy-5-(1H-1,2,4-triazol-1-yl)phenoxy)-3,4′-bipyridine], the minimal effective concentration (in [1]; in assay [3]; in [5]; in [8]; with SW480; in [11]) was 0.001 to 1 µM each time. The minimal effective concentration is 1 µM in the assay on RPEMYC^H2B-GFP cells [13], 0.001 to 1 µM in [14], 1 µM in the assay on RPEMYC^H2B-GFP cells [15] and 0.001 to 1 µM in assay [16]. Also, the EC50 in assay [2], in assay [4], in [6], in [7], in [9] and in [10] was 1 to 1000 nM each time. In addition, the EC50 in [12] and in [17] was 1 to 1000 nM each time.

With `CNC(=O)c1cc(Oc2ncccc2-c2ccnc(C)c2)cc(OC(F)(F)F)c1` [Compound 39, N-methyl-3-((2′-methyl-[3,4′-bipyridin]-2-yl)oxy)-5-(trifluoromethoxy)benzamide], the minimal effective concentration (in assay [1]; in [3]; in assay [5]; in [8]; in the assay on SW480; in [11]) was 0.001 to 1 µM in each case. The minimal effective concentration was 1 µM with RPEMYC^H2B-GFP cells [13], 0.001 to 1 µM in [14], 1 µM in the assay on RPEMYC^H2B-GFP cells [15] and 0.001 to 1 µM in [16]. Also, the EC50 in assay [2], in assay [4], in assay [6], in assay [7], in assay [9] and in assay [10] was 1 to 1000 nM in each case. Moreover, the EC50 in [12] and in assay [17] was 1 to 1000 nM each time.

In the case of `CNC(=O)c1cc(Oc2ncccc2-c2ccncc2)cc(OC(F)(F)F)c1` [Compound 7, 3-([3,4′-bipyridin]-2-yloxy)-N-methyl-5-(trifluoromethoxy)benzamide], the minimal effective concentration (in [1]; in [3]; in assay [5]; in assay [8]; with SW480; in [11]) was 0.001 to 1 µM each time. The minimal effective concentration in the assay on RPEMYC^H2B-GFP cells [13] is 1 µM; in [14], 0.001 to 1 µM; in the assay with RPEMYC^H2B-GFP cells [15] it was 1 µM; in assay [16], 0.001 to 1 µM. Besides, the EC50 in [2], in [4], in assay [6], in [7], in assay [9] and in [10] was 1 to 1000 nM in each case. For the same molecule, the EC50 in [12] and in assay [17] was 1 to 1000 nM each time.

Take `COc1cc(Oc2ncccc2-c2ccnc(OC)c2)cc(-n2cccn2)c1` [Compound 31, 2′-methoxy-2-(3-methoxy-5-(1H-pyrazol-1-yl)phenoxy)-3,4′-bipyridine]: the minimal effective concentration (in [1]; in [3]; in assay [5]; in [8]; in the assay with SW480; in [11]) was 0.001 to 1 µM throughout. The minimal effective concentration in the assay on RPEMYC^H2B-GFP cells [13] is 1 µM; in assay [14], 0.001 to 1 µM; in the assay with RPEMYC^H2B-GFP cells [15], 1 µM; in assay [16], 0.001 to 1 µM. Moreover, the EC50 in assay [2], in [4], in [6], in assay [7], in [9] and in assay [10] was 1 to 1000 nM in each case. Moreover, the EC50 in assay [12] and in [17] was 1 to 1000 nM each time.
